In patent publication US10421781B2, “Antimicrobial peptide and use thereof” (NOVACELL TECHNOLOGY INC., priority 2015, dated 2019):

Assays:
[1] = antibacterial activity of N-terminally lipid-modified peptides; type: cell-based; settings: compared with peptides carrying other lipid groups (palmitoyl etc.) at the N-terminus
Text: In order to further improve the antibacterial activity of the peptides that underwent the basic screening in Example 1, the present inventors have examined the antibacterial activity of these peptides by synthesizing modified peptides in which various lipid components, such as a palmitoyl group, an octanoyl group, etc., were attached to the N-terminus of these peptides.

Pseudomonas aeruginosa = assay: antibacterial test in nutrient broth (absorbance at 600 nm); type: cell-based
Protocol: (§1) In order to further improve the antibacterial activity of the peptides prepared in Example 2, an antibacterial test was performed. Gram-positive bacteria Staphylococcus epidermidis and Staphylococcus aureus) and gram-negative bacteria (Pseudomonas aeruginosa and E. coli) were prepared, streaked on agar plate medium using a four-quadrant sequential streak technique, and cultured in a 36° C. incubator overnight. On the next day, the strain colonies on the agar plate medium were inoculated into nutrient broth (3 mL) and cultured overnight at 36° C. and 220 rpm in a shaking incubator. On the next day, the bacteria culture was diluted and the absorbance at 600 nm was measured and adjusted to 0.5. Then, the bacteria culture was diluted in nutrient broth in a 1:100 ratio. Then, the peptides prepared in Example 2 were sequentially diluted in nutrient broth at concentrations of 0 μM, 1.25 μM, 2.5 μM, 5 μM, 10 μM, and 20 μM in an amount of 1 mL, respectively, and 1 mL of the diluted bacteria was inoculated, and cultured overnight at 36° C. and 220 rpm in a shaking incubator for 18 hours. Then, the absorbance was measured at 600 nm and the results were analyzed.

Staphylococcus aureus = assay: as above; type: cell-based
Protocol: as §1

[2] = tested on: Staphylococcus epidermidis; assay: as above; type: cell-based
Protocol: as §1

E. coli = assay: as above; type: cell-based, Escherichia coli
Protocol: as §1

FPR2 = target: T1, FPR2 (Homo sapiens, UniProt P25090); assay: intracellular calcium ions (Fura-2/AM) in RBL cells overexpressing FPR2; type: cell-based
T1 construct: expressed in transfected cells; host or cells: RBL cells overexpressing FPR2 (FPR2-RBL)
T1 sequence (P25090 1-351): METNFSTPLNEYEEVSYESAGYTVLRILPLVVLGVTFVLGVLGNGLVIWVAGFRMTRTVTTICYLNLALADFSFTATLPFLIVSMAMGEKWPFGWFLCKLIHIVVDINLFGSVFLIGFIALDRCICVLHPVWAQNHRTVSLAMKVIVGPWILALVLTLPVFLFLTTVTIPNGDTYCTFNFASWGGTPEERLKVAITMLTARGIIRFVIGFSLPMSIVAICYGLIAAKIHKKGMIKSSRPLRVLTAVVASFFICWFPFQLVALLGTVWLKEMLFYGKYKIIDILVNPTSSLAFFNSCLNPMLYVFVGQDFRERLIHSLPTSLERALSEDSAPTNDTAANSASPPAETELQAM
Text: To examine whether the peptide according to an embodiment of the present invention activates the in vivo immunological function of a living organism, the present inventors observed the changes in calcium ion permeability. Specifically, they measured the concentration of intracellular calcium ions to examine whether the peptide activates FPR2. To this end, the present inventors used RBL cells in which FPR2 was not expressed, RBL cells in which FPR1 was overexpressed (FPR1-RBL), and RBL cells in which FPR2 was overexpressed, and used Fura-2/AM, a staining material having a strong binding affinity for calcium, as a method for sensitive measurement of the release of intracellular calcium ions. […] Approximately 2×10^6 cells were taken each time and harvested by rapid centrifugation, and resuspended in 1 mL of Locke solution in which EGTA was added but no calcium ions were added, and the absorbance ratios at two wavelengths of 340 nm and 380 nm were monitored on a spectrophotometer. After treating with the peptide of the present invention at different concentrations (1 μM, 0.1 μM, and 0.01 μM) at intervals of about 1 minute, the difference in absorbance at two wavelengths of 340 nm and 380 nm was examined and this was later converted to the concentration of calcium ions freed into the cells according to the method of Grynkiewicz.

[3] = tested on: atopic dermatitis induced by capsaicin (Neo-Cap); assay: Neo-Cap model of atopic dermatitis induced by capsaicin; type: in vivo, Sprague Dawley rats; settings: 10 μM applied daily on back and ears
Protocol: As such, to confirm whether the peptide according to an embodiment of the present invention can actually treat immune-related diseases by activating immunological functions in vivo, the present inventors examined whether the symptoms of atopic dermatitis can be ameliorated by treating the peptide on the animal model of atopic dermatitis. […]
In Neo-Cap model, the dermatitis score was measured two weeks after the injection of capsaicin, and the control group (PBS) and NCP112 were applied daily on the back (200 μL) and both ears (50 μL) at a concentration of 10 μM, and the dermatitis score was measured at one-week intervals for three weeks. The dermatitis score was measured on the face, ears, back (total) and ears, and back (application site) according to skin conditions, and the score was standardized by setting the score at the second week (i.e., the starting point) at 1, as shown in FIG. 4.
The mice analyzed in Experimental Example 3-1 were treated with the peptide according to an embodiment of the present invention, and after five weeks, the mice were sacrificed. […]

[4] = tested on: atopic dermatitis induced by capsaicin (2 W Cap); assay: 2 W Cap model of atopic dermatitis induced by capsaicin; type: in vivo, Sprague Dawley rats; settings: 10 μM applied daily on back and ears
Text: As such, to confirm whether the peptide according to an embodiment of the present invention can actually treat immune-related diseases by activating immunological functions in vivo, the present inventors examined whether the symptoms of atopic dermatitis can be ameliorated by treating the peptide on the animal model of atopic dermatitis. Specifically, to confirm whether the peptide has the effect of ameliorating dermatitis in a model of atopic dermatitis induced by capsaicin, the present inventors observed the degree of skin improvement after treating the peptide (NCP112) according to an embodiment of the present invention on the animals with atopy (Neo-Cap and 2 W Cap) in the dermis of atopy-induced skin tissue, the applied site in the dermis, and the site with scratches. Neo-Cap, which is a representative model of atopic dermatitis, was subcutaneously injected with capsaicin (50 mg/kg) on the back skin of neonatal rats (Sprague Dawley rats) of less than 48 hours to induce atopic dermatitis. 2 W Cap, which is a model mimicking of atopic dermatitis developed in adolescent period or adults, was subcutaneously injected twice with capsaicin (25 mg/kg) of 2-week-old rats (Sprague Dawley) to induce atopic dermatitis.
In 2 W-Cap model, the dermatitis score was measured one week after the capsaicin injection, and the control group (PBS) and NCP112 were applied daily on the back (200 μL) and both ears (50 μL) at a concentration of 10 μM, and the dermatitis score was measured at one-week intervals for two weeks, in the same manner as in Neo-Cap model.
The mice analyzed in Experimental Example 3-1 were treated with the peptide according to an embodiment of the present invention, and after five weeks, the mice were sacrificed. The skin tissue at the site where dermatitis was induced by capsaicin treatment was removed in a size of about 3 cm×3 cm and the tissue was fixed in a 4% paraformaldehyde solution for two to three days. […]

[5] = 10 μM peptide, 18 hours, 36° C., absorbance 600 nm
[6] = versus control (PBS), week 5, FIG. 6

Substance: Oct-KFKWRYm [NCP112]
- antibacterial activity among modified peptides [1]: highest activity
- antibacterial activity (Pseudomonas aeruginosa; 0 to 20 μM peptide, FIG. 1): concentration-dependent manner
- growth of bacteria (Pseudomonas aeruginosa; [5]): completely inhibited the growth
- antibacterial effect compared among the 4 kinds of bacteria (Pseudomonas aeruginosa; FIG. 1): highest antibacterial effect
- antibacterial activity (Staphylococcus aureus; 0 to 20 μM peptide, FIG. 1): concentration-dependent manner
- growth of bacteria (Staphylococcus aureus; [5]): completely inhibited the growth
- antibacterial activity ([2]; 0 to 20 μM peptide, FIG. 1): concentration-dependent manner
- growth of bacteria [2, 5]: completely inhibited the growth
- antibacterial activity (E. coli; 0 to 20 μM peptide, FIG. 1): concentration-dependent manner
- growth of bacteria (E. coli; [5]): completely inhibited the growth
- amount of intracellular concentration increase of calcium ions (FPR2; 1 μM, 0.1 μM and 0.01 μM peptide, FPR2-RBL cells, FIG. 2B): concentration-dependent feature
- intracellular calcium ions (FPR2; FPR2-RBL versus RBL and FPR1-RBL cells, FIG. 2A): rapidly increased specifically in FPR2-RBL cells
- symptom of atopic dermatitis [3]: effect of ameliorating the symptom of atopic dermatitis
- epidermal layer (thickness, H&E stained skin tissue) [3, 6]: slight decrease
- skin conditions [4]: comparable to that of the normal conditions
- symptom of atopic dermatitis [4]: effect of ameliorating the symptom of atopic dermatitis
- epidermal layer (thickness, H&E stained skin tissue) [4, 6]: significant decrease
